From the NIST ThermoML archive (doi:10.1016/j.tca.2007.03.018)

Test: molar heat capacity at saturation pressure
Settings: Large sample (1 g) DSC

C1C2CC3CC1CC(C14CC5CC(CC(C5)C1)C4)(C2)C3 [1,1'-biadamantane]
Settings	molar heat capacity [J/K/mol]
368.9 K, Crystal 2	422.5
372.5 K, Crystal 2	428.1
376.1 K, Crystal 2	435.3
379.7 K, Crystal 2	439.7
383.3 K, Crystal 2	443.1
386.9 K, Crystal 2	448.3
390.4 K, Crystal 2	452.1
394 K, Crystal 2	456.9
397.6 K, Crystal 2	460.5
401.2 K, Crystal 2	466.4
404.8 K, Crystal 2	471.7
408.4 K, Crystal 2	471.9
412 K, Crystal 2	478.1
415.6 K, Crystal 2	481.4
419.2 K, Crystal 2	490.8
422.8 K, Crystal 2	493.1
426.4 K, Crystal 2	496.1
430 K, Crystal 2	501.3
433.6 K, Crystal 2	507.8
437.1 K, Crystal 2	513
440.7 K, Crystal 2	519.9
444.3 K, Crystal 2	525
447.9 K, Crystal 2	529.9
451.5 K, Crystal 2	537.9
455.1 K, Crystal 2	544.8
458.7 K, Crystal 2	549.6
462.3 K, Crystal 2	556.8
465.9 K, Crystal 2	563.6
469.5 K, Crystal 2	572.6
473 K, Crystal 2	579.1
476.6 K, Crystal 2	584.1
480.2 K, Crystal 2	587.8
483.8 K, Crystal 2	600.3
487.4 K, Crystal 2	611.9
491 K, Crystal 2	607.2
494.6 K, Crystal 2	617.9
495.5 K, Crystal 2	621.1
496.4 K, Crystal 2	621.4
497.3 K, Crystal 2	621.7
498.1 K, Crystal 2	626.7
499 K, Crystal 2	629.7
499.9 K, Crystal 2	632.7
500.8 K, Crystal 2	635.2
501.7 K, Crystal 2	637.1
502.6 K, Crystal 2	636.9
503.5 K, Crystal 2	639
504.4 K, Crystal 2	644.5
505.3 K, Crystal 2	647.9
506.2 K, Crystal 2	659.8
507 K, Crystal 2	693.8
507.9 K, Crystal 2	741.7
508.7 K, Crystal 2	773.6
509.6 K, Crystal 1	792.3
510.6 K, Crystal 1	763.7
511.5 K, Crystal 1	724.5
512.4 K, Crystal 1	700.9
513.3 K, Crystal 1	684.2
514.2 K, Crystal 1	674.9
515.2 K, Crystal 1	668.9
516.1 K, Crystal 1	662.2
517 K, Crystal 1	655.5
517.9 K, Crystal 1	658.8
518.8 K, Crystal 1	647.2
519.7 K, Crystal 1	637.1
520.6 K, Crystal 1	640.5
522.4 K, Crystal 1	641.1
523.3 K, Crystal 1	647.5
524.2 K, Crystal 1	653.8
525.1 K, Crystal 1	653.9
526.8 K, Crystal 1	660.2
527.7 K, Crystal 1	653
528.6 K, Crystal 1	663.2
529.5 K, Crystal 1	664.4
530.4 K, Crystal 1	664.4
531.3 K, Crystal 1	663.3
532.2 K, Crystal 1	664.8
533.1 K, Crystal 1	667.8
534 K, Crystal 1	666.7
534.9 K, Crystal 1	674.5
535.8 K, Crystal 1	671
536.7 K, Crystal 1	671.7
537.6 K, Crystal 1	675
538.5 K, Crystal 1	681.1
539.4 K, Crystal 1	676.6
540.3 K, Crystal 1	677
543.1 K, Crystal 1	681.3
544.9 K, Crystal 1	692.5
546.7 K, Crystal 1	693.7
548.5 K, Crystal 1	702.1
550.3 K, Crystal 1	709.8
552.1 K, Crystal 1	724.2
553.9 K, Crystal 1	741
555.7 K, Crystal 1	752.9
557.4 K, Crystal 1	744.3
559.2 K, Crystal 1	772.6
561 K, Crystal 1	802.7
